Literature values as cited in US20030054382A1, “Infection of eukaryotic cells with viruses in vitro” (priority 1999, published 2003).

Tested on: HCV
Conditions: pretreatment of the cells to be infected

Substance: dextran sulfate
- attachment of HCV to the cell surface and infection of the cells: inhibits the attachment of HCV to the cell surface and prevents any infection of the cells
